Only the 19 paired bases of each siRNA are shown; overhangs and chemistry are not given here.
Each substance was assayed against Renilla luciferase (assay: five studies, different assays). Conditions: siRNA.
Further: test concentration or dose not given here.

**Q.** With “sense AGAUGCACCUGAUGAAAUG / antisense CAUUUCAUCAGGUGCAUCU” as the substance, how does the target inhibition read?
**A.** The target inhibition was 63.9%.

**Q.** For “sense AGUUCGUCGUCCAACAUUA / antisense UAAUGUUGGACGACGAACU”, which target inhibition is on record?
**A.** Its target inhibition is 66.5%.

**Q.** With “sense GAUCAAAUCUGAAGAAGGA / antisense UCCUUCUUCAGAUUUGAUC” as the substance, how does the target inhibition read?
**A.** Its target inhibition is 90.9%.

**Q.** How did the target inhibition turn out when “sense UUUAUGGCGACAUGUUGUG / antisense CACAACAUGUCGCCAUAAA” was run?
**A.** The target inhibition was 29.4%.

**Q.** With “sense UCUACGUGCAAGUGAUGAU / antisense AUCAUCACUUGCACGUAGA” as the substance, how does the target inhibition read?
**A.** The target inhibition was 89.5%.

What follows are substances tested against PLK1 (assay: five studies, different assays). Conditions: siRNA.

**Q.** Which target inhibition does the source give for “sense AGAUCACCCUCCUUAAAUA / antisense UAUUUAAGGAGGGUGAUCU” here?
**A.** Its target inhibition is 72.5%.

**Q.** Which target inhibition does the source give for “sense AGAUUGUGCCUAAGUCUCU / antisense AGAGACUUAGGCACAAUCU” here?
**A.** Its target inhibition is 68.5%.

**Q.** “sense UUUGAGACUUCUUGCCUAA / antisense UUAGGCAAGAAGUCUCAAA” was tested. Which target inhibition did it give?
**A.** The target inhibition was 82.2%.

**Q.** “sense GAUGUCCAUGGAAAUAUCC / antisense GGAUAUUUCCAUGGACAUC” was tested. Which target inhibition did it give?
**A.** Its target inhibition is 43.9%.

**Q.** With “sense UAUUUCCGCAAUUACAUGA / antisense UCAUGUAAUUGCGGAAAUA” as the substance, how does the target inhibition read?
**A.** The target inhibition was 57.1%.

**Q.** How did the target inhibition turn out when “sense AGAAUGAAUACAGUAUUCC / antisense GGAAUACUGUAUUCAUUCU” was run?
**A.** The target inhibition was 58%.

**Q.** For “sense AUGACUCAACACGCCUCAU / antisense AUGAGGCGUGUUGAGUCAU”, which target inhibition is on record?
**A.** The target inhibition was 58.4%.

**Q.** With “sense AUGAAGAUCUGGAGGUGAA / antisense UUCACCUCCAGAUCUUCAU” as the substance, how does the target inhibition read?
**A.** The target inhibition was 55%.

**Q.** “sense GGGCGGCUUUGCCAAGUGC / antisense GCACUUGGCAAAGCCGCCC” was tested. Which target inhibition did it give?
**A.** Its target inhibition is 30.6%.

**Q.** How did the target inhibition turn out when “sense CAGUUUCGAGGUGGAUGUG / antisense CACAUCCACCUCGAAACUG” was run?
**A.** The target inhibition was 52.6%.

The substances below were run against DBI (assay: five studies, different assays). Conditions: siRNA.

**Q.** For “sense UUACUGACUUUCCUUGAGU / antisense ACUCAAGGAAAGUCAGUAA”, which target inhibition is on record?
**A.** Its target inhibition is -8.35%.

**Q.** “sense AAACGAUUACUGACUUUCC / antisense GGAAAGUCAGUAAUCGUUU” was tested. Which target inhibition did it give?
**A.** The target inhibition was -18.6%.

**Q.** For “sense AAGAUGCCAUGAAAGCUUA / antisense UAAGCUUUCAUGGCAUCUU”, which target inhibition is on record?
**A.** The target inhibition was 50.7%.

**Q.** For “sense AAAGUAGAAGAGCUAAAGA / antisense UCUUUAGCUCUUCUACUUU”, which target inhibition is on record?
**A.** Its target inhibition is 71.8%.

**Q.** For “sense ACUGAGACAAUGCCUUGUU / antisense AACAAGGCAUUGUCUCAGU”, which target inhibition is on record?
**A.** Its target inhibition is 6.01%.

**Q.** How did the target inhibition turn out when “sense AGAUGCCAUGAAAGCUUAC / antisense GUAAGCUUUCAUGGCAUCU” was run?
**A.** Its target inhibition is -9.13%.

**Q.** For “sense UGAAAGCUUACAUCAACAA / antisense UUGUUGAUGUAAGCUUUCA”, which target inhibition is on record?
**A.** Its target inhibition is 33.7%.

**Q.** Which target inhibition does the source give for “sense UGGGAUGCCUGGAAUGAGC / antisense GCUCAUUCCAGGCAUCCCA” here?
**A.** The target inhibition was 4.9%.

**Q.** “sense AAGAGCUAAAGAAAAAAUA / antisense UAUUUUUUCUUUAGCUCUU” was tested. Which target inhibition did it give?
**A.** The target inhibition was 68%.

Source: the OligoGym collection
